Consider four molecules from PMC9898191 (Nature chemical biology, 2022).

The target of experiment [1] is Syk in MV4-11 cells (Homo sapiens, UniProt P43405). Kind of experiment: WC36B-streptavidin pull down assay with immunoblotting. Type of experiment: binding. Background: A western blot detects proteins with antibodies after separation by electrophoresis.
Experiment [2] relates to PM translocation of EGFP-Syk WT in Syk−/− DT40 cells. The experiment is described as follows: Subcellular localization of EGFP-Syk WT in IgM-stimulated Syk-null DT40 cells. Type of experiment: cell-based. As to conditions: 10 nM overnight.
Experiment [3] deals with WC36B-binding cellular proteins of MV4-11 cells. The experiment is described as follows: Mass spectrometry-based proteomics of WC36B-binding cellular proteins. Also noted: species or system human. To be noted: biotin as negative control.
In experiment [4] the test system is phosphorylation of ERK1/2 and STAT3/5 in RAS-mutated HL60 cells. Kind of experiment: Western blot of IgG2-stimulated phosphorylation in HL-60 cells. Type of experiment: cell-based. As to conditions: 5 μM.
Experiment [5] deals with HL60 cells. Kind of experiment: XTT cell proliferation assay, HL-60 cells. The experiment is classed as cell-based. In general terms: Tetrazolium assays rely on reduction of a dye to a coloured formazan, in cell work by metabolically active cells.
Experiment [6] concerns phosphorylation of Syk, ERK1/2 and STAT3/5 in entospletinib-resistant MV4-11 cells. To be noted: 5 μM.
For experiment [7], the system named is ZAP-70 phosphorylation in Jurkat T cells. The experiment is described as follows: Western blot of ZAP-70 phosphorylation in Jurkat T cells. Type of experiment: cell-based. To be noted: 5 μM overnight, OKT3 stimulated.

Consider `Nc1ncnc2c1ncn2[C@@H]1O[C@H](COP(=O)(O)OP(=O)(O)OP(=O)(O)O)[C@@H](O)[C@H]1O` [ATP], for which the “competition with WC36B for Syk binding” value in experiment [1] (WC36 10 μM, entospletinib 10 μM, ATP 1 mM) was “only WC36 was able to compete”.
For the molecule `CS(=O)(=O)N1CCN(Cc2cc3nc(-c4cccc5[nH]ncc45)nc(N4CCOCC4)c3s2)CC1` [GDC-0941], in experiment [2], the “PM translocation of EGFP-Syk WT” value is listed as “greatly suppressed”.
Consider `[N-]=[N+]=C(C(=O)NCCNC(=O)CCCC[C@H]1SC[C@H]2NC(=O)N[C@H]21)C(Nc1ncccn1)c1c[nH]c2ccccc12` (some centres unmarked) [WC36B], for which the “proteins captured compared with biotin control” value in experiment [3] is “Syk is the single major protein”. The “capture of Syk by streptavidin beads pulldown” value in experiment [1] (MV4-11 cells, 5 μM, 24 h) is “targets Syk”.
As to `c1cn2cc(-c3ccc4cn[nH]c4c3)nc(Nc3ccc(N4CCOCC4)cc3)c2n1` [entospletinib], the “suppression of phosphorylation of ERK1/2 and STAT3/5” value in experiment [4] is given as “could not suppress phosphorylation”. Also, the “suppression of proliferation (XTT assay)” value in experiment [5] was “ineffective”. The “inhibition of phosphorylation of Syk, ERK1/2 and STAT3/5” value in experiment [6] was “could not inhibit phosphorylation”. Further, the “inhibition of ZAP-70 phosphorylation” value in experiment [7] is reported as “significantly inhibited”.
